Patent US7906709B2, “Methods for breeding glyphosate resistant plants and compositions thereof” (priority 2006, dated 2011)

How the values were obtained:
S line of rigid ryegrass = test: Dose response study of plant injury, S line; type: in vivo, Lolium rigidum; details: visual injury 4 WAT, 1× = 1.12 kg ai ha^-1
Experimental: A dose response study is conducted on the R and S lines of rigid ryegrass. The rates of glyphosate applied varied from 0.125×, 0.25×, 0.5×, 1×, 2×, 4×, 6×, 8×, 10×, to 12×. The sprayed solutions and application procedures are similar to those described previously. Plants are evaluated for visual injury at 4 WAT. Data (4 WAT) from two experiments with 8 replications of each treatment are analyzed by non-linear regression and fitted to a log-logistic model:
[formula] where y is predictive of plant injury (% of control), X50=dose required to obtain 50% injury and b is the slope at X50.

[1] = system: EPSPS from R and S biotypes of rigid ryegrass; test: EPSPS activity assay in the presence of glyphosate; type: biochemical, Lolium rigidum; details: glyphosate from 5 to 5000 µM; crown tissue extract; R versus S biotype
Experimental: Extraction methods for EPSPS are modified from methods discussed in Boerboom et al., Weed Sci. 38:463-467 (1990). Crown tissue (0.5 gram fresh weight per sample) is harvested from California rigid ryegrass plants, frozen in liquid nitrogen, and grounded in a cold mortar with 150 mg polyvinylpolypyrrolidone (PVPP). The fine powder tissue is ground further in 0.5 ml extraction buffer (pH 7.5) containing 10 mM Trizma HC1, 1 mM ethylenediaminetetraacetic acid (EDTA), 10% (v/v) glycerol, 1 mg ml^−1 bovine serum albumin (BSA), 10 mM ascorbate, 1 mM benzamidine (BAM), and 5 mM dithiothreitol (DTT). The mixture is centrifuged at 15,000×g for 10 min, and the supernatant is desalted in 1.0 ml Sephadex G-50 column (^7 MICRO-SPINS® Shephadex G-50 column, Life Science Products Inc., Frederick, Colo.) and further centrifuged at 1,000×g for 3 min. Total protein in the supernatant is quantified spectrometrically at 595 nm followed the method discussed in Bradford, Anal. Biochem 72:248-254 (1976).
Assay of EPSPS activity is modified from methods discussed in Westwood and Weller, Weed Sci. 45:2-11 (1997). […]
Data from duplicate experiments with three replications of each treatment are analyzed by non-linear regression and fitted to a log-logistic model, […]

[2] = system: F1 hybrid of perennial ryegrass and glyphosate resistant rigid ryegrass; test: Glyphosate sensitivity of F1 hybrid population; type: in vivo, Lolium perenne x Lolium rigidum; details: 50 plants, 3 weeks after treatment
Experimental: (§1) The R biotype of California rigid ryegrass, which survived 8× glyphosate and perennial ryegrass, which died from 0.25× of glyphosate, are grown individually in 950-ml pots with professional planting mix media as discussed above. Plants are maintained in greenhouse with supplemental light, watered daily, and fertilized weekly with NPK water soluble fertilizer (20-20-20). At the mature vegetative stage, perennial ryegrass plants are vernalized in the growth chamber with the temperature 4 ±1 C, 8 h day and 16 h night. After 4 weeks vernalization, the plants are removed and maintained in greenhouse until flowering.
Seed heads of perennial ryegrass are designated to be pollinated by California rigid ryegrass also vice-verse because both of the species are allogamus plants. Both are known to be self-incompatible. After the emergence of seed heads and before the pollen opened, one plant from each species is isolated in one room of greenhouse. To provide conditions for cross-pollination, perennial ryegrass and rigid ryegrass plants are placed next to each other. During the pollination period, plants are maintained regularly as mentioned previously until the seed reached the maturity. The successful hybridization is indicated with the full development of mature seeds which had brown color. Seeds are harvested from both perennial and rigid ryegrass. Seeds from perennial ryegrass hybrids are used for further evaluation.
Seeds of the F1 hybrid harvested from perennial ryegrass are grown and maintained as individual plants in the greenhouse as described previously. At the tillering stage, 50 plants for each of glyphosate rates (0.25, 0.5, 1.0, 1.5, 2.0, 4.0, and 8×, where x=1.12 kg ha^−1) are evaluated for sensitivity or resistance. Glyphosate is delivered in 187 L ha^−1 spray solutions with 172.5 kPa pressure using a flat fan nozzle. The dead or survivors in each treatment are counted 3 weeks after treatment and the plants with the highest level of resistance are further maintained and intercrossed to generate F2.

[3] = system: F2 population from cross between perennial ryegrass and glyphosate resistant rigid ryegrass; test: Glyphosate sensitivity of F2 hybrid population; type: in vivo, Lolium perenne x Lolium rigidum; details: 0.5× glyphosate; 3 WAT
Experimental: The population of F2 is evaluated for glyphosate sensitivity with 0.5× glyphosate. Severely injured and dead plants are recorded 3 weeks after treatment (WAT) and are designated similar to the sensitive (S) parent. The survivors are re-acclimated for further evaluation at 8× glyphosate. The survivors from 8× glyphosate are designated similar to resistant (R) parent. The rest of the population that responded between S and R are identified as intermediate (I).

perennial ryegrass = test: Glyphosate sensitivity of perennial ryegrass parent; type: in vivo, Lolium perenne; details: sensitive parent
Experimental: as §1
Segregation of glyphosate sensitivity in the F2 population is illustrated in FIG. 4. The percentage of the sensitive plants in F2 (16 percent) is higher than expected due to the glyphosate rate (0.5×) exceeded the sensitivity level of sensitive parents.

[4] = Glyphosate 0.25 kg ha^-1 as headed
[5] = Glyphosate 0.50 kg ha^-1 as headed
[6] = Glyphosate 1 kg ha^-1 as headed
[7] = Glyphosate 4 kg ha^-1 as headed
[8] = Glyphosate 8 kg ha^-1 as headed

SMILES: O=C(O)CNCP(=O)(O)O [glyphosate, N-(phosphonomethyl) glycine]
- glyphosate rate for 50% injury (S line of rigid ryegrass): 0.1 ×
- inhibition of EPSPS activity [1]: significantly inhibited more in S than in R
- Severely injured and dead [2, 4]: 0%
- Survivors [2, 4]: 100%
- Severely injured and dead [2, 5]: 6%
- Survivors [2, 5]: 94%
- Severely injured and dead [2, 6]: 10%
- Survivors [2, 6]: 90%
- Survivors ([2]; Glyphosate 2 kg ha^-1 as headed (2× in text)): 90%
- Survivors ([2]; Glyphosate 2 kg ha^-1 as headed (2× in text), listed as Glyphosate): 90**) Percent
- Severely injured and dead ([2]; Glyphosate 2 kg ha^-1 as headed): 10%
- Severely injured and dead [2, 7]: 100%
- Survivors [2, 7]: 0%
- Severely injured and dead [2, 8]: 100%
- Survivors [2, 8]: 0%
- percentage of the sensitive plants in F2 [3]: 16%
- sensitivity level (glyphosate rate from which plants died) (perennial ryegrass): 0.25 ×
